In patent US8785488B2 (Exelixis Patent Company LLC, priority 2009, dated 2014):
Where two headings read alike, the source gives them in different places.

What was measured:
[1] = target: T1, human TGR5 (h-TGR5) (Homo sapiens, UniProt Q8TDU6); assay: TGR5/CRE-Luciferiase Assay (HEK 293 hTGR5/CRE-Luc cells); type: cell-based
T1 construct: expressed in transfected cells
T1 sequence (Q8TDU6 1-330): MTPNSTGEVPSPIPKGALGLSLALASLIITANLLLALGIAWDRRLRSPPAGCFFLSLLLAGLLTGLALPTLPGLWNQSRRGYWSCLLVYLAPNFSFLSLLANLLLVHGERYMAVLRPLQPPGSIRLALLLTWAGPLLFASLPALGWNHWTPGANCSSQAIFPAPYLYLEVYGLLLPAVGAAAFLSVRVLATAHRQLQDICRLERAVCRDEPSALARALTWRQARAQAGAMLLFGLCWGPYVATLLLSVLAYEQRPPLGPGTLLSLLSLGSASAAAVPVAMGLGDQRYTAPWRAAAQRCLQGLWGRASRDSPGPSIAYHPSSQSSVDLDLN
Outline: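 HEK293 cells stably carrying hTGR5 and a CRE-luciferase reporter were exposed to serially diluted compounds (diluted in DMEM with 5% DMSO) for 6 h. Cells were then lysed in luciferase buffer, luminescence was read, and EC50 values were derived from dose-response curves.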

[2] = target: T2, h-TGR5 (Homo sapiens, UniProt Q8TDU6); assay: TGR5 cAMP Assay using Cisbio cAMP Dynamic2 htrf kit (hTGR5CRE-luc HEK 293 cells); type: cell-based
T2 construct: expressed in transfected cells
T2 sequence (Q8TDU6 1-330): T1 sequence (Q8TDU6 1-330)
Outline: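 […], 4000 hTGR5CRE-luc HEK 293 cells per well, with 0.5 mM IBMX and d2-cAMP, were incubated 30 min at room temperature with compounds in 8-point half-log series, in quadruplicate.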

[3] = h-TGR5 CRE-Luc EC50, Table 1, read-out: CRE-Luc (EC50)
[4] = h-TGR5 cAMP EC50, Table 1, read-out: cAMP (EC50)
[5] = HEK 293 hTGR5/CRE-Luc cells, 6 hours incubation, luciferase activity, Table 2, read-out: h-TGR5CRE-Luc EC50 (CRE-Luc)
[6] = hTGR5CRE-luc HEK 293 cells, htrf cAMP, Table 2, read-out: h-TGR5 cAMP EC50 (cAMP)

Compound	EC50 [1, 3]	EC50 [2, 4]	EC50 [1, 5]	EC50 [2, 6]
COc1ccc(C(C)(C)c2c(Cl)nc(SCc3c(F)cccc3Cl)n2-c2ccc(F)cc2)cc1OC [5-{1-[3,4-bis(methyloxy)phenyl]-1-methylethyl}-4-chloro-2-{[(2-chloro-6-fluorophenyl)methyl]thio}-1-(4-fluorophenyl)-1H-imidazole]	< 100 nM	< 100 nM		
CC(C)(c1ccc(Cl)c(Cl)c1)c1c(Cl)nc(SCc2ccc(-c3nnn[nH]3)c(Cl)c2)n1-c1ccc(F)cc1 [5-{2-chloro-4-[({4-chloro-5-[1-(3,4-dichlorophenyl)-1-methylethyl]-1-(4-fluorophenyl)-1H-imidazol-2-yl}thio)methyl]phenyl}-1H-tetrazole]	100 to 1000 nM	1000 to 10000 nM		
CC(C)(c1ccc(Cl)c(Cl)c1)c1cnc(SCc2ccc(Cl)c(-c3nnn[nH]3)c2)n1-c1cccc(Cl)c1 [5-{2-chloro-5-[({1-(3-chlorophenyl)-5-[1-(3,4-dichlorophenyl)-1-methylethyl]-1H-imidazol-2-yl}thio)methyl]phenyl}-1H-tetrazole]	100 to 1000 nM	100 to 1000 nM		
CC(C)(c1ccc(Cl)c(Cl)c1)c1cnc(SCc2ccc(Cl)c(-c3nnn[nH]3)c2)n1-c1ccc(F)cc1 [5-{2-chloro-5-[({5-[1-(3,4-dichlorophenyl)-1-methylethyl]-1-(4-fluorophenyl)-1H-imidazol-2-yl}thio)methyl]phenyl}-1H-tetrazole]	100 to 1000 nM	100 to 1000 nM		
CC(C)(c1ccc(Cl)c(Cl)c1)c1cnc(SCC2CCN(c3nnn[nH]3)C2)n1-c1ccc(F)cc1 (stereo not shown) [5-{3-[({5-[1-(3,4-dichlorophenyl)-1-methylethyl]-1-(4-fluorophenyl)-1H-imidazol-2-yl}thio)methyl]pyrrolidin-1-yl}-1H-tetrazole]	100 to 1000 nM	1000 to 10000 nM		
CC(C)(c1ccc(Cl)c(Cl)c1)c1cnc(SCc2ccc(-c3nnn[nH]3)cc2Cl)n1-c1ccc(F)cc1 [5-{3-chloro-4-[({5-[1-(3,4-dichlorophenyl)-1-methylethyl]-1-(4-fluorophenyl)-1H-imidazol-2-yl}thio)methyl]phenyl}-1H-tetrazole]	100 to 1000 nM	100 to 1000 nM		
CC(C)(c1ccc(Cl)c(Cl)c1)c1cnc(SCc2c(F)cc(-c3nnn[nH]3)cc2F)n1-c1ccc(F)cc1 [5-{4-[({5-[1-(3,4-dichlorophenyl)-1-methylethyl]-1-(4-fluorophenyl)-1H-imidazol-2-yl}thio)methyl]-3,5-difluorophenyl}-1H-tetrazole]	100 to 1000 nM	100 to 1000 nM		
CC(C)(c1ccc(Cl)c(Cl)c1)c1cnc(SCc2ccc(-c3nnn[nH]3)cc2F)n1-c1ccc(F)cc1 [5-{4-[({5-[1-(3,4-dichlorophenyl)-1-methylethyl]-1-(4-fluorophenyl)-1H-imidazol-2-yl}thio)methyl]-3-fluorophenyl}-1H-tetrazole]	100 to 1000 nM	100 to 1000 nM		
CC(C)(c1ccc(Cl)c(Cl)c1)c1cnc(SCc2cc(-c3nnn[nH]3)ccc2Cl)n1-c1ccc(F)cc1 [5-{4-chloro-3-[({5-[1-(3,4-dichlorophenyl)-1-methylethyl]-1-(4-fluorophenyl)-1H-imidazol-2-yl}thio)methyl]phenyl}-1H-tetrazole]	100 to 1000 nM	100 to 1000 nM		
COc1ccc(Cc2cnc(SCc3ccc(F)cc3Cl)n2-c2ccc(F)cc2)cc1OC [5-{[3,4-bis(methyloxy)phenyl]methyl}-2-{[(2-chloro-4-fluorophenyl)methyl]thio}-1-(4-fluorophenyl)-1H-imidazole]	< 100 nM	< 100 nM		
CC(C)(c1ccc(CO)c(Cl)c1)c1cnc(SCc2ccc(F)cc2Cl)n1-c1ccc(F)cc1 [(2-chloro-4-{1-[2-{[(2-chloro-4-fluorophenyl)methyl]thio}-1-(4-fluorophenyl)-1H-imidazol-5-yl]-1-methylethyl}phenyl)methanol]	100 to 1000 nM	100 to 1000 nM		
COc1cc(C(C)(C)c2cnc(SCc3c(F)cc(OCC/C=N/NC(=N)N)cc3Cl)n2-c2ccc(F)cc2)ccc1Cl [(2E)-2-(3-{[3-chloro-4-({[5-{1-[4-chloro-3-(methyloxy)phenyl]-1-methylethyl}-1-(4-fluorophenyl)-1H-imidazol-2-yl]thio}methyl)-5-fluorophenyl]oxy}propylidene) hydrazinecarboximidamide]	< 100 nM	< 100 nM		
CC(C)(c1ccc(Cl)c(Cl)c1)c1cnc(SCc2ccc(OCC(=O)O)c(S(N)(=O)=O)c2)n1-c1ccc(F)cc1 [({2-(aminosulfonyl)-4-[({5-[1-(3,4-dichlorophenyl)-1-methylethyl]-1-(4-fluorophenyl)-1H-imidazol-2-yl}thio)methyl]phenyl}oxy)acetic acid]	100 to 1000 nM	100 to 1000 nM		
CC(C)(c1ccc(Cl)c(Cl)c1)c1cnc(SCc2ccc(F)c(OCC(=O)O)c2)n1-c1ccc(F)cc1 [({5-[({5-[1-(3,4-dichlorophenyl)-1-methylethyl]-1-(4-fluorophenyl)-1H-imidazol-2-yl}thio)methyl]-2-fluorophenyl}oxy)acetic acid]	100 to 1000 nM	100 to 1000 nM		
COc1cc(C(C)(C)c2cnc(SCc3c(F)cc(C(=O)NCS(=O)(=O)O)cc3Cl)n2-c2ccc(F)cc2)ccc1Cl [({[3-chloro-4-({[5-{1-[4-chloro-3-(methyloxy)phenyl]-1-methylethyl}-1-(4-fluorophenyl)-1H-imidazol-2-yl]thio}methyl)-5-fluorophenyl]carbonyl}amino) methanesulfonic acid]	< 100 nM	< 100 nM		
COc1cc(C(C)(C)c2cnc(SCc3c(F)cc(C(=O)NCS(=O)(=O)O)cc3F)n2-c2ccc(F)cc2)ccc1Cl [({[4-({[5-{1-[4-chloro-3-(methyloxy)phenyl]-1-methylethyl}-1-(4-fluorophenyl)-1H-imidazol-2-yl]thio}methyl)-3,5-difluorophenyl]carbonyl}amino)methanesulfonic acid]	< 100 nM	< 100 nM		
COc1cc(C(C)(C)c2cnc(SCc3ccc(C(=O)NCS(=O)(=O)O)cc3F)n2-c2ccc(F)cc2)ccc1Cl [({[4-({[5-{1-[4-chloro-3-(methyloxy)phenyl]-1-methylethyl}-1-(4-fluorophenyl)-1H-imidazol-2-yl]thio}methyl)-3-fluorophenyl]carbonyl}amino)methanesulfonic acid]	< 100 nM	< 100 nM		
CC(C)(c1ccc2nccnc2c1)c1nnc(SCc2c(F)cccc2Cl)n1-c1ccc(F)cc1 [Example 45]			< 100 nM	< 100 nM

Further lines, results first:

EC50 [1, 3]	EC50 [2, 4]	EC50 [1, 5]	EC50 [2, 6]	Compound
		< 100 nM	< 100 nM	CC(C)(c1ccc2cccnc2c1)c1nnc(SCc2c(F)cccc2Cl)n1-c1ccc(F)cc1 [Example 47]
		100 to 1000 nM	100 to 1000 nM	CC(C)(c1ccc(Cl)c(Cl)c1)c1nnc(SCc2c(F)cc(C(=O)O)cc2F)n1-c1ccc(F)cc1 [Example 48]
		< 100 nM	100 to 1000 nM	COc1cc(-n2c(SCc3ccc(Cl)c(-c4nnn[nH]4)c3)nnc2C(C)(C)c2ccc(Cl)c(OC)c2)ccc1F [Example 49]
< 100 nM	< 100 nM			CC(C)(c1ccc2onc(N)c2c1)c1cnc(SCc2c(F)cc(C(=O)NC(CCCNC(=N)N)C(=O)O)cc2Cl)n1-c1ccc(F)cc1 [N-2-({4-[({5-[1-(3-amino-1,2-benzisoxazol-5-yl)-1-methylethyl]-1-(4-fluorophenyl)-1H-imidazol-2-yl}thio)methyl]-3-chloro-5-fluorophenyl}carbonyl)-D-arginine]
< 100 nM	< 100 nM			COc1cc(-n2c(C(C)(C)c3ccc4onc(N)c4c3)cnc2SCc2c(F)cc(C(=O)NC(CCCNC(=N)N)C(=O)O)cc2Cl)ccc1F [N-2-({4-[({5-[1-(3-amino-1,2-benzisoxazol-5-yl)-1-methylethyl]-1-[4-fluoro-3-(methyloxy)phenyl]-1H-imidazol-2-yl}thio)methyl]-3-chloro-5-fluorophenyl}carbonyl]-D-arginine]
< 100 nM	< 100 nM			COc1cc(-n2c(C(C)(C)c3ccc(S(N)(=O)=O)c(Cl)c3)cnc2SCc2c(F)cc(C(=O)NC(CCCNC(=N)N)C(=O)O)cc2Cl)ccc1F [N-2-[(4-{[(5-{1-[4-(aminosulfonyl)-3-chlorophenyl]-1-methylethyl}-1-[4-fluoro-3-(methyloxy)phenyl]-1H-imidazol-2-yl)thio]methyl}-3-chloro-5-fluorophenyl)carbonyl]-D-arginine]
< 100 nM	< 100 nM			COc1cc(C(C)(C)c2cnc(SCc3c(F)cc(C(=O)NCCCC(NC(=N)N)C(=O)O)cc3Cl)n2-c2ccc(F)cc2)ccc1Cl [N-2-[amino(imino)methyl]-N-5-{[3-chloro-4-({[5-{1-[4-chloro-3-(methyloxy)phenyl]-1-methylethyl}-1-(4-fluorophenyl)-1H-imidazol-2-yl]thio}methyl)-5-fluorophenyl]carbonyl}-L-ornithine]
100 to 1000 nM	100 to 1000 nM			CC(C)(c1ccc(Cl)c(Cl)c1)c1cnc(CCc2c(F)cc(C(=O)N[C@@H](CCCNC(=N)N)C(=O)O)cc2Cl)n1-c1ccc(F)cc1 [N-2-{[3-chloro-4-(2-{5-[1-(3,4-dichlorophenyl)-1-methylethyl]-1-(4-fluorophenyl)-1H-imidazol-2-yl}ethyl)-5-fluorophenyl]carbonyl}-L-arginine]
